# Strand notation (5' to 3'): a small letter for the sugar, then the base; units joined by * are phosphorothioate-linked, units joined directly phosphodiester-linked; [ ] holds rarer units or linkages, { } end groups; capitals alone tell only the bases. e = 2'-O-(2-methoxyethyl) (MOE); [5mC] = 5-methylcytosine; d = 2'-deoxy (DNA)
# System: human microsomal triglyceride transfer protein mRNA
# Experiment: Antisense inhibition of human microsomal triglyceride transfer protein mRNA levels, quantitative real-time PCR
# Conditions: averages from two experiments
row,Substance,% INHIB (inhibition of human microsomal triglyceride transfer protein mRNA levels) [%]
1,144408 (eT*e[5mC]*eA*eA*e[5mC]*dT*dG*d[5mC]*dA*dT*d[5mC]*d[5mC]*dA*dG*dT*eG*e[5mC]*e[5mC]*e[5mC]*eA; antisense) [compound 144408],30
2,144409 (eT*e[5mC]*eA*eT*eA*dT*dT*dG*dA*d[5mC]*d[5mC]*dA*dG*d[5mC]*dA*eA*eT*e[5mC]*e[5mC]*eT; antisense) [compound 144409],31
3,144410 (e[5mC]*e[5mC]*eA*eG*eT*dT*dG*dT*dG*dT*dG*dA*d[5mC]*d[5mC]*dT*eT*eT*eA*eA*e[5mC]; antisense) [compound 144410],38
4,144411 (eA*e[5mC]*eG*eT*eG*dA*dG*d[5mC]*dT*dT*dG*dT*dA*d[5mC]*dA*eG*e[5mC]*e[5mC]*eG*eG; antisense) [compound 144411],28
5,144412 (eG*e[5mC]*eG*eG*eT*dA*dG*d[5mC]*d[5mC]*d[5mC]*dA*d[5mC]*dG*d[5mC]*dT*eG*eT*e[5mC]*eT*eT; antisense) [compound 144412],34
6,144413 (eG*eA*eT*eT*e[5mC]*d[5mC]*dT*d[5mC]*d[5mC]*dA*dT*dA*dG*dT*dA*eA*eG*eG*e[5mC]*e[5mC]; antisense) [compound 144413],91
7,144414 (eG*eA*eT*eT*eA*dG*dA*dT*dG*dA*dA*dG*dG*dA*dG*e[5mC]*eG*eT*eA*eG; antisense) [compound 144414],0
8,144415 (eG*eT*eG*eG*eT*dT*d[5mC]*d[5mC]*dA*dG*dA*dG*d[5mC]*dT*dT*eA*eA*e[5mC]*eT*eG; antisense) [compound 144415],0
9,144416 (eA*eG*eG*eT*eG*dG*dT*dG*dA*d[5mC]*dA*dG*dA*dT*dG*eT*eA*eG*e[5mC]*eT; antisense) [compound 144416],27
10,144417 (eG*e[5mC]*eT*eG*e[5mC]*dA*dG*d[5mC]*d[5mC]*dT*dG*d[5mC]*dT*dT*dT*e[5mC]*e[5mC]*eA*eG*eA; antisense) [compound 144417],9
11,144418 (eA*e[5mC]*eA*eG*eT*dG*dG*d[5mC]*dT*d[5mC]*dT*dG*dG*dA*dA*eG*eA*e[5mC]*e[5mC]*eT; antisense) [compound 144418],0
12,144419 (eT*eG*eG*eT*eG*dG*dA*d[5mC]*d[5mC]*dG*d[5mC]*d[5mC]*dA*dG*dA*eG*e[5mC]*eT*e[5mC]*e[5mC]; antisense) [compound 144419],0

# System: mouse microsomal triglyceride transfer protein mRNA
# Experiment: Antisense inhibition of mouse microsomal triglyceride transfer protein mRNA levels in primary hepatocytes, quantitative real-time PCR
# Format: cell-based
# Set-up: concentration or dose not given beside the values
# Conditions: averages from two experiments
# Procedure: Primary mouse hepatocytes were prepared from CD-1 mice purchased from Charles River Labs (Wilmington, Mass.) and were routinely cultured in Hepatocyte Attachment Media (Gibco) supplemented with 10% Fetal Bovine Serum (Gibco/Life Technologies, Gaithersburg, Md.), 250 nM dexamethasone (Sigma), and 10 nM bovine insulin (Sigma). Cells were seeded into 96-well plates (Falcon-Primaria #3872) at a density of 10000 cells/well for use in RT-PCR analysis.
# Cells were harvested 16-24 hours after oligonucleotide treatment.
# All cytidine residues are 5-methylcytidines. […] Data are averages from two experiments. If present, “N.D.” indicates “no data”.
row,Substance,% INHIB (inhibition of mouse microsomal triglyceride transfer protein mRNA levels)
1,"TGACATGCCAGCATAAGAGT (all phosphorothioate, sugars by position and methylation of C not given here; 2'-MOE wings and deoxy gap) [ISIS 144498, 2′-MOE gapmer phosphorothioate antisense oligonucleotide to mouse MTP]",at least 30%
2,"TGCACAACGGTGAGCATGTA (all phosphorothioate, sugars by position and methylation of C not given here; 2'-MOE wings and deoxy gap) [ISIS 144492, 2′-MOE gapmer phosphorothioate antisense oligonucleotide to mouse MTP]",at least 30%
3,"TTCCAGTGCTCCGCCAGAGA (all phosphorothioate, sugars by position and methylation of C not given here; 2'-MOE wings and deoxy gap) [ISIS 144481, 2′-MOE gapmer phosphorothioate antisense oligonucleotide to mouse MTP]",at least 30%

# Reference: patent publication US20050181376A1, “Antisense modulation of microsomal triglyceride transfer protein expression” (ISIS Pharmaceuticals, Inc., priority 2001, published 2005)
